Values quoted from earlier work as cited in patent US7625920B2, “Fluorinated 4-azasteroid derivatives as androgen receptor modulators” (priority 2003, dated 2009).

Key:
[1] = median of 22 months of treatment
[2] = after 7 years of treatment

Row | Molecule | reduction in nonvertebral fractures [1] [%] | reduction in spine fractures [1] [%] | increase in spinal BMD [2] [%]
1 | hPTH(1-34): human parathyroid hormone 1-34 fragment (SVSEIQLMHNLGKHLNSMERVEWLRKKLQDVHNF; Parathyroid hormone; UniProt P01270 32-65, looked up, fragment) | 54 | ≥ 65 | 
2 | NCCCC(O)(P(=O)([O-])O)P(=O)(O)O.O.O.O.[Na+] [alendronate, (4-amino-1-hydroxybutylidene)-bis-phosphonate monosodium trihydrate] |  |  | 11
